Article PMC7462607 (eLife, 2020)
Where “and” joins values, the source holds several entries; their conditions need not be identical. Equal values may be shown once. Read-outs that look alike come from different tables or passages of the source.

Columns and labels:
[1] = tested on: A549 cells expressing sgRNAs (NTC, DDB1, RBX1, UBE2G1); assay: Cell viability assay, A549 cells expressing non-targeting control or sgRNAs targeting DDB1, RBX1 or UBE2G1; type: cell-based, Homo sapiens; conditions: for CellTiter-Glo (ATP): raw signal; for IC50: Homo sapiens
Experimental: Seven hundred A549 cells or 1,000 HCT-116 cells in 50 µL of medium were plated per well in 384-well flat clear bottom white polystyrene TC-treated microplates (Corning, Corning, USA). After overnight attachment, cells were dosed with a serial dilution of HQ461 with a D300e digital dispenser (Tecan, Männedorf, Switzerland). Cell survival was measured 72 hr later using CellTiter-Glo luminescent cell viability assay kit (Promega, Madison, USA) following vendor instructions. Luminescence was recorded by EnVison multimode plate reader (PerkinElmer, Waltham, USA). IC50 was determined with GraphPad Prism using baseline correction (by normalizing to DMSO control), the asymmetric (five parameter) equation, and least squares fit.
Two sgRNAs per gene were chosen from the Brunello library for DDB1 (5’-[…]-3’ and 5’-[…]-3’), RBX1 (5’- […]-3’ and 5’-[…]-3’), and UBE2G1 (5’-[…]-3’ and 5’- […]-3’). Annealed sgRNA oligos were cloned into the lentiCRISPR v2 vector. Lentiviral packaging was performed by co-transfecting the resulting plasmids with psPAX2 (Addgene 12260) and pMD2.G (Addgene 12259) into 293 T cells. Media collected from transfected 293 T cells was used to infect A549 cells at MOI ~ 5 for 4 days. The resulting cells were tested for their sensitivity to HQ461 using methods describe in the previous session cell viability assay.

[2] = target: T1, CDK12 (Homo sapiens, UniProt Q9NYV4); assay: Western blotting of CDK12 protein level in A549 cells; type: cell-based; conditions: A549, after 8 hr of treatment
T1 construct: Western blotting of CDK12 and CCNK from A549 cells treated with HQ461; endogenous in cells; host or cells: A549
Experimental: Standard SDS-PAGE and western blotting procedures were used with the following modifications. For preparation of total lysates, cells were rinsed with DPBS to remove residual medium and then lysed in 20 mM HEPES-NaOH, pH 8.0, 10 mM NaCl, 2 mM MgCl2, 1% SDS freshly supplemented with 0.5 units/µL of benzonase and 1x cOmplete, Mini, EDTA-free protease inhibitor cocktail (Roche, Bazel, Switzerland). Protein concentrations of the resulting lysates were quantified by the BCA method. Between 30 to 60 µg of proteins were resolved on SDS-PAGE and transferred to nitrocellulose membranes with a pore size of 0.5 μm. Membranes were blocked in 5% nonfat milk PBST (0.1% v/v Tween-20) for 30 min before blotting with antibodies. […]

T1 sequence (Q9NYV4 whole entry): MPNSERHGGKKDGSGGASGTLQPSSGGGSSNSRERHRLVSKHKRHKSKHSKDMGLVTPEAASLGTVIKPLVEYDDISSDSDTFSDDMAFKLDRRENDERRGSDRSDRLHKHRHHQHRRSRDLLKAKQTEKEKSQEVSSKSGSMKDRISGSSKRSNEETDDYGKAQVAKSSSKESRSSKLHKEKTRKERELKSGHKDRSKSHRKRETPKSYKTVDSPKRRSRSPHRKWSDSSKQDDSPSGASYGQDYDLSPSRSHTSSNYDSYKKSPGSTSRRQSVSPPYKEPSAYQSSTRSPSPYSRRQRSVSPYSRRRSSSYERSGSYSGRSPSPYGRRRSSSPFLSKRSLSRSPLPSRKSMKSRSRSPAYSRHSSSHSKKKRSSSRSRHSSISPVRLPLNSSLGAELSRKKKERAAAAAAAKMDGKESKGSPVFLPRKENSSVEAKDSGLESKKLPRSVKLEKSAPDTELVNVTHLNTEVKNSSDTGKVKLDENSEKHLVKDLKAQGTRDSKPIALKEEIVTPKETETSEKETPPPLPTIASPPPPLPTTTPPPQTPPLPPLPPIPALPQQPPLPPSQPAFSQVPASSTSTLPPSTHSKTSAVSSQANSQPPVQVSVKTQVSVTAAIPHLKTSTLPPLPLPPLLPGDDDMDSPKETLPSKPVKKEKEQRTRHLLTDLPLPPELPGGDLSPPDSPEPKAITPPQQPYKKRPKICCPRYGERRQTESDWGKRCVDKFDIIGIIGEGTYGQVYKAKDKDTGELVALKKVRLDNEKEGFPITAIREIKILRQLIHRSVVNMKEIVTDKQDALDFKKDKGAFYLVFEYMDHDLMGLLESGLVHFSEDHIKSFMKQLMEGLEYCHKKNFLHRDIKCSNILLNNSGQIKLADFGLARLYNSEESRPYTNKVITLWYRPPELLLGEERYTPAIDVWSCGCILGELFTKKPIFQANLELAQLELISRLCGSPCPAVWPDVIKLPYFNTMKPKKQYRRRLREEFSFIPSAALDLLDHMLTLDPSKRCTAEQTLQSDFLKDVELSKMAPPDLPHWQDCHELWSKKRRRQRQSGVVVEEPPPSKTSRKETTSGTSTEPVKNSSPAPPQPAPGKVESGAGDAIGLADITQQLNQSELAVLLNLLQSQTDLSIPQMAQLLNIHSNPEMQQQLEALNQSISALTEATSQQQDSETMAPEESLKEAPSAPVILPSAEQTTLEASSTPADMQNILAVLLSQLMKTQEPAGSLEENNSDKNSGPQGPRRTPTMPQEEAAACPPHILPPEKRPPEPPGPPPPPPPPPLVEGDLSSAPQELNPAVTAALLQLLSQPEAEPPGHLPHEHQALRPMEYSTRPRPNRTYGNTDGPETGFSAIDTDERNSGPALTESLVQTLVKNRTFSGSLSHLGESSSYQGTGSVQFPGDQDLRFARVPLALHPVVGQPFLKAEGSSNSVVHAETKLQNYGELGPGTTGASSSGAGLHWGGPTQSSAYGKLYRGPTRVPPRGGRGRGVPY
T1 sequence (O75909 whole entry partner): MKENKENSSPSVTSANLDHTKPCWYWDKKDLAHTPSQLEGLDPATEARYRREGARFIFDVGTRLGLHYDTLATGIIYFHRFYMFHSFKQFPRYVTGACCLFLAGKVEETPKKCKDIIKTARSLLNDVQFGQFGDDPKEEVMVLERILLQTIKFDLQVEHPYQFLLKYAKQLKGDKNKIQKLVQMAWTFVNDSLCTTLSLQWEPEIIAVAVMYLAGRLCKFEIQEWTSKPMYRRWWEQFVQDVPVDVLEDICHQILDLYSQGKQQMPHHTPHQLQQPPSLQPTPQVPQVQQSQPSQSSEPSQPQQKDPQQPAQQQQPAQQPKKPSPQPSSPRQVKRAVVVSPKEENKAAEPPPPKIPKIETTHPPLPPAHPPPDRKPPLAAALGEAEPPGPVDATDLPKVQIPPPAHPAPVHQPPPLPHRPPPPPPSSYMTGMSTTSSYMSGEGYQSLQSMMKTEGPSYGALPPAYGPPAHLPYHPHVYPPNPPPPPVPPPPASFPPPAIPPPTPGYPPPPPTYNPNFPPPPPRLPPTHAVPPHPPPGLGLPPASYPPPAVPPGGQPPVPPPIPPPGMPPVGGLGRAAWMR

SMILES: Cc1cccc(Nc2nc(CC(=O)Nc3ncc(C)s3)cs2)n1 [HQ461, 2-(2-((6-methylpyridin-2-yl)amino)thiazol-4-yl)-N-(5-methylthiazol-2-yl)acetamide]
- CellTiter-Glo (ATP) ([1]; A549 sgDDB1-1, HQ461 1.04e-6 M): 266440 and 262730 and 269540
- CellTiter-Glo (ATP) ([1]; A549 sgDDB1-1, HQ461 1.84e-6 M): 260200 and 241370 and 247600
- CellTiter-Glo (ATP) ([1]; A549 sgDDB1-1, HQ461 5e-5 M): 103060 and 118120 and 131920
- CellTiter-Glo (ATP) ([1]; A549 sgDDB1-1, HQ461 1.16E-07 M): 267930 and 251180 and 224010
- CellTiter-Glo (ATP) ([1]; A549 sgDDB1-1, HQ461 2.04E-07 M): 317680 and 266950 and 274210
- CellTiter-Glo (ATP) ([1]; A549 sgDDB1-1, HQ461 3.52E-07 M): 250370 and 237750 and 246820
- CellTiter-Glo (ATP) ([1]; A549 sgDDB1-1, HQ461 6.08E-07 M): 264740 and 257780 and 224550
- CellTiter-Glo (ATP) ([1]; A549 sgDDB1-1, HQ461 6.80E-08 M): 250520 and 230710 and 232990
- CellTiter-Glo (ATP) ([1]; A549 sgNTC, HQ461 1.04e-6 M): 250120 and 267660 and 292550
- CellTiter-Glo (ATP) ([1]; A549 sgNTC, HQ461 1.84e-6 M): 177290 and 247760 and 214770
- CellTiter-Glo (ATP) ([1]; A549 sgNTC, HQ461 2.88e-5 M): 34040
- CellTiter-Glo (ATP) ([1]; A549 sgNTC, HQ461 5e-5 M): 18410 and 24360 and 23900
- CellTiter-Glo (ATP) ([1]; A549 sgNTC, HQ461 1.16E-07 M): 358110 and 293700 and 340660
- CellTiter-Glo (ATP) ([1]; A549 sgNTC, HQ461 2.04E-07 M): 291450 and 300990 and 265430
- CellTiter-Glo (ATP) ([1]; A549 sgNTC, HQ461 3.52E-07 M): 289350 and 289810 and 317840
- CellTiter-Glo (ATP) ([1]; A549 sgNTC, HQ461 6.08E-07 M): 260230 and 280040 and 269860
- CellTiter-Glo (ATP) ([1]; A549 sgNTC, HQ461 6.80E-08 M): 322880 and 295000 and 291440
- CellTiter-Glo (ATP) ([1]; A549 sgRBX1-1, HQ461 1.04e-6 M): 306380 and 286480 and 313050
- CellTiter-Glo (ATP) ([1]; A549 sgRBX1-1, HQ461 1.84e-6 M): 225540 and 237470 and 230500
- CellTiter-Glo (ATP) ([1]; A549 sgRBX1-1, HQ461 5e-5 M): 43060 and 31790 and 35930
- CellTiter-Glo (ATP) ([1]; A549 sgRBX1-1, HQ461 1.16E-07 M): 288560 and 290760 and 286800
- CellTiter-Glo (ATP) ([1]; A549 sgRBX1-1, HQ461 2.04E-07 M): 262410 and 264720 and 241220
- CellTiter-Glo (ATP) ([1]; A549 sgRBX1-1, HQ461 3.52E-07 M): 292190 and 292940 and 303380
- CellTiter-Glo (ATP) ([1]; A549 sgRBX1-1, HQ461 6.08E-07 M): 295780 and 267950 and 240730
- CellTiter-Glo (ATP) ([1]; A549 sgRBX1-1, HQ461 6.80E-08 M): 297310 and 267380 and 272530
- CellTiter-Glo (ATP) ([1]; A549 sgUBE2G1-1, HQ461 1.04e-6 M): 312980 and 335750 and 320370
- CellTiter-Glo (ATP) ([1]; A549 sgUBE2G1-1, HQ461 1.84e-6 M): 297250 and 326340 and 338010
- CellTiter-Glo (ATP) ([1]; A549 sgUBE2G1-1, HQ461 2.88e-5 M): 51820 and 43500 and 48750
- CellTiter-Glo (ATP) ([1]; A549 sgUBE2G1-1, HQ461 5e-5 M): 35610 and 27850 and 21460
- CellTiter-Glo (ATP) ([1]; A549 sgUBE2G1-1, HQ461 1.16E-07 M): 299870 and 310810 and 340290
- CellTiter-Glo (ATP) ([1]; A549 sgUBE2G1-1, HQ461 2.04E-07 M): 303360 and 350750 and 286460
- CellTiter-Glo (ATP) ([1]; A549 sgUBE2G1-1, HQ461 3.52E-07 M): 341410 and 309550 and 308880
- CellTiter-Glo (ATP) ([1]; A549 sgUBE2G1-1, HQ461 6.08E-07 M): 297850 and 310080 and 327760
- CellTiter-Glo (ATP) ([1]; A549 sgUBE2G1-1, HQ461 6.80E-08 M): 296160 and 325630 and 360740
- IC50 ([1]; A549, independent second sgRNA, Figure 1-figure supplement 2D, read-out: IC50 on the viability of A549 cells expressing sgRNA targeting DDB1): > 28.8 µM
- IC50 ([1]; A549, independent second sgRNA, Figure 1-figure supplement 2D, read-out: IC50 on the viability of A549 cells expressing sgRNA targeting RBX1): 11 µM
- IC50 ([1]; A549, independent second sgRNA, Figure 1-figure supplement 2D, read-out: IC50 on the viability of A549 cells expressing sgRNA targeting UBE2G1): 13.6 µM
- IC50 ([1]; A549, sgDDB1, Figure 1D, read-out: IC50 on the viability of A549 cells expressing sgRNA targeting DDB1): > 28.8 µM
- IC50 ([1]; A549, sgNTC, Figure 1D, read-out: IC50 on the viability of A549 cells expressing non-targeting control (NTC)): 2.3 µM
- IC50 ([1]; A549, sgRBX1, Figure 1D, read-out: IC50 on the viability of A549 cells expressing sgRNA targeting RBX1): 10.9 µM
- IC50 ([1]; A549, sgUBE2G1, Figure 1D, read-out: IC50 on the viability of A549 cells expressing sgRNA targeting UBE2G1): 11.9 µM
- reduction of CDK12 protein level [2]: 50%
